Experimental data taken from publication PMC12397098, “3-Monothiopomalidomide, a new immunomodulatory imide drug (IMiD), blunts inflammation and mitigates ischemic stroke in the rat” (GeroScience, 2025).
Where two headings read alike, the source gives them in different places.

What was measured:
[1] = Pharmacokinetic evaluations of 3,6’-DP in rats; assay type: in vivo, rat; settings: authors' recent pharmacokinetic evaluations, no data shown
[2] = set-up: method as in PMID 32589144; settings: cited from earlier work
[3] = system: IL-1β, TNF-α and IL-10 levels in animals with MCAo; set-up: method as in PMID 35631536; settings: cited from earlier work
[4] = Sprague Dawley, rat, microsomes, 1 h, 1 μM
in vitro = settings: Sprague Dawley, rat, microsomes
[5] = human, microsomes, 1 μM
[6] = Liver microsomal stability, rat
[7] = Liver microsomal stability, human; settings: 1 μM
[8] = set-up: method as in earlier work; settings: nonhuman primate (cynomolgus monkey); cited from earlier work
[9] = system: LPS-induced cytokines (TNF-α, IL-6, IL-10, IL-13) in plasma and cerebral cortex; experiment: Systemic and brain LPS anti-inflammatory study in rats; assay type: in vivo; settings: rat, 1 h pre-treatment, 3-MP 13.23 and 26.47 mg/kg I.P., pomalidomide 25 mg/kg I.P., LPS 1 mg/kg I.P., 4 h
[10] = cited from earlier work
[11] = set-up: method as in earlier work; settings: rat; cited from earlier work
[12] = system: LPS-induced cytokines (TNF-α, IL-6, IL-10, IL-13) in plasma and cerebral cortex; experiment: Systemic and brain LPS anti-inflammatory study in rats; assay type: in vivo; settings: rat, LPS 1 mg/kg, 4 h
Method: They were administered, via the intraperitoneal (I.P.) route, nano-formulated 3-MP at a dose of 13.25 or 26.5 mg/kg (equimolar to a clinically translatable dose of 12.5 and 25 mg/kg thalidomide), vehicle or pomalidomide (25 mg/kg). One hour later, animals were administered either LPS (1 mg/kg, E.Coli 055:B5, Sigma Aldrich, in normal saline, 0.5 mg/mL) or an alike volume of saline (without LPS) via the I.P. route. The LPS dose was selected from prior pilot studies to provide a substantial but sub-maximal rise in plasma proinflammatory cytokine levels, in line with our prior research. The selected 3-MP and pomalidomide doses were chosen as they are equimolar to, or are less than, doses of thalidomide and analogues that have been verified to be well tolerated in our previous studies and are of translational relevance to humans. Four hours after LPS administration, the animals were euthanized, and blood and brain tissues were collected and placed on wet ice. Plasma was quickly separated from blood by centrifugation (10,000 × g, 5 min, 4 °C) and together with the brain samples (cerebral cortex) was stored at − 80 °C. At a later time, cerebral cortex samples were sonicated in a TRIS-based lysis buffer (Mesoscale Discovery) with 3 × protease/phosphatase inhibitors (Halt™ Protease and Phosphatase Inhibitor Cocktail, Thermo Fisher Scientific, Waltham, MA, USA). Samples were then centrifuged (10,000 × g, 5 min, 4 °C), supernatant separated, and protein concentrations were quantified by bicinchoninic acid assay (BCA, Thermo Fisher Scientific). Rat plasma and cerebral cortex samples were analyzed by multi-proinflammatory cytokine ELISA (V-PLEX Proinflammatory Panel 2 Rat Kit, Mesoscale Discovery) following the manufacturer’s protocol to quantify TNF-α, IL-6, IL-10, and IL-13 levels.

[13] = Sprague Dawley, rat, microsomes

Nc1cccc2c1C(=S)N(C1CCC(=S)NC1=O)C2=O (stereo not shown) [3,6’-DP, 3,6’-dithiopomalidomide]
disappearance from plasma [1]: disappears relatively rapidly | oral bioavailability [1]: low | brain/plasma concentration ratio [2]: 0.8 | IL-1β levels [3]: significantly reduce | IL-10 levels [3]: increased substantially | TNF-α levels [3]: significantly reduce

O=C(O)Cc1ccccc1Nc1c(Cl)cccc1Cl [Diclofenac, diclofenac, reference compound]
Remaining (NCF = 60 min) [4]: 107.9% | Remaining (T = 60 min) [4]: 2.2% | CLint scaled at 1 μM (in vitro): 227 mL/min/kg | microsomal CLint at 1 μM (in vitro): 126 µL/min/mg | Clint(liver) [5]: 292.3 mL/min/kg | Clint(mic) [5]: 324.8 µL/min/mg | Remaining (NCF = 60 min) ([5]; 1 h): 101.0% | Remaining (T = 60 min) ([5]; 1 h): 0.0%

C[C@]12CC[C@H]3[C@@H](CCC4=CC(=O)CC[C@@]43C)[C@@H]1CC[C@@H]2O [Testosterone, testosterone]
CLint scaled at 1 μM [6, 13]: 3910 mL/min/kg | microsomal CLint at 1 μM [6, 13]: 2170 µL/min/mg | Remaining (T = 60 min) ([6]; rat liver microsomes with NADPH, 1 μM, 60 min): 0.1% | Remaining (NCF = 60 min) ([6]; rat liver microsomes, no co-factor (no NADPH), 1 μM, 60 min): 103.7% | Remaining (T = 60 min) ([7]; human liver microsomes with NADPH, 60 min): 13.2% | Clint(liver) ([7]; human liver microsomes with NADPH, scaled from Clint(mic)): 59.0 mL/min/kg | Remaining (NCF = 60 min) ([7]; human liver microsomes, no co-factor (no NADPH), 60 min): 97.1%

Nc1cccc2c1C(=O)N(C1CCC(=O)NC1=O)C2=O (stereo not shown) [pomalidomide]
bioavailability [8]: 15% | LPS-induced cytokine changes in plasma and cerebral cortex [9]: significantly mitigated | brain/plasma concentration ratio [10]: 0.71 | bioavailability [11]: 13% | LPS-mediated elevations in brain IL-13 ([12]; 3-MP both doses and pomalidomide I.P.): maintained | decline in IL-6 brain levels ([12]; 3-MP low dose 13.25 mg/kg I.P., pomalidomide 25 mg/kg I.P.): failed to achieve statistical significance | IL-10 elevation induced by LPS in plasma or brain ([12]; high- or low-dose 3-MP or pomalidomide I.P.): not lessened
